This note sets out measurements from US7795253B2, “Condensed imidazole derivatives as aromatase inhibitors” (Novartis AG, priority 2006, dated 2010).

The IC50 is the concentration needed to halve the response being measured.

This assay deals with T1, recombinant human Cyp19 enzyme (Homo sapiens, UniProt P11511).
T1 construct: purchased Becton Dickinson Biosciences, San Jose, Calif., USA
T1 sequence (P11511 1-503): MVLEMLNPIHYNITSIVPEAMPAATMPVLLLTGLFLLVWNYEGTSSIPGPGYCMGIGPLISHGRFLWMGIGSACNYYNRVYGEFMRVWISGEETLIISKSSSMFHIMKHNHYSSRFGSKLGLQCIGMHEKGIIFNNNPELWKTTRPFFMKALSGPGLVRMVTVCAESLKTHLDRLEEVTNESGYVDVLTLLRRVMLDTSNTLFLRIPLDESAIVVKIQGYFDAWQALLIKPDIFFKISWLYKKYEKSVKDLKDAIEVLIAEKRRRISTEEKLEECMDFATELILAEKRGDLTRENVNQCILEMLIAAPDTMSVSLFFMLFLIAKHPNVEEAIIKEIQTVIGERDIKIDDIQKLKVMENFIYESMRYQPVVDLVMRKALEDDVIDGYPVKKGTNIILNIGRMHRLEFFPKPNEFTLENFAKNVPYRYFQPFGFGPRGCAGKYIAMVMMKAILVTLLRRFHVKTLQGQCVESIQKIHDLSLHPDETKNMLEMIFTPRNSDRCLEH
The assay is described as follows: Cyp19/methoxy-4-trifluoromethyl-coumarin (MFC) high throughput inhibition kit. It is filed as biochemical. As to conditions: Cyp19 supersomes, MFC substrate. How it is done: A compound of formula (I) is to be understood as a compound having a specific configuration around the designated asymmetric carbon atom labelled “*”. If a synthesis method is used which leads to racemic compounds, the racemate resolution is carried out in accordance with conventional methods, such as via a chiral HPLC column. […] The aforementioned activity can, readily and as described below, be determined by using a commercial Cyp19 enzyme inhibition kit, preferably the Cyp19/methoxy-4-trifluoromethyl-coumarin (MFC) high throughput inhibition kit (Becton Dickinson Biosciences, San Jose, Calif., USA) as described hereafter. In the above-mentioned inhibition kit, compounds of the formula (I) show an inhibiting activity which is at least 10 times higher, but preferably 20 times higher, or more preferably 40 times higher, than the substances of the formula (I) with the opposite configuration around the asymmetric carbon atom labelled “*”. A higher inhibiting activity corresponds to a lower IC50 value.
These effects are demonstrable in in vitro assay tests using cell-free and cellular systems. […] The Cyp19/Methoxy-4-trifluoromethyl-coumarin (MFC) high throughput inhibition kit (Becton Dickinson Biosciences, San Jose, Calif., USA), for example, is designed to screen for potential inhibitors of Cyp19 catalytic activity in a 96-well format. […]

Regarding `N#Cc1ccc(C2OCCn3cncc32)cc1` (stereo not shown) [antipode of 1], the IC50 is 2.77 µM.
